Biological target: T1, G1 APOL1 (Homo sapiens, UniProt O14791, I384M/S342G)
T1 construct: expressed in transfected cells
T1 sequence (O14791 28-398 S342G/I384M): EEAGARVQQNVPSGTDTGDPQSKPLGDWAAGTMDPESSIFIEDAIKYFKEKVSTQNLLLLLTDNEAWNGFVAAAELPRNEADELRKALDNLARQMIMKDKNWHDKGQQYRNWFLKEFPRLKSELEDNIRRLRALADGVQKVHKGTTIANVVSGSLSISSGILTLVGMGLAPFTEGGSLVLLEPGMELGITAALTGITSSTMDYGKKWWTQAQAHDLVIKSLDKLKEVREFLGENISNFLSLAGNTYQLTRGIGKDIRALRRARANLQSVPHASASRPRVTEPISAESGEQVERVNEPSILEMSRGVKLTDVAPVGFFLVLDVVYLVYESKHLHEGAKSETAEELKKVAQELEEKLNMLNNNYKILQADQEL
Test: Acute APOL1 Thallium Assay with inducible stable clones of HEK 293 cells
Type: cell-based
Conditions: HEK 293 T-Rex inducible stable clone expressing G1 APOL1; read-out: Thallium Assay (IC50)
Procedure, shortened: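 APOL1 pore function was measured as thallium influx, detected by a Tl+-sensitive fluorescent dye loaded as AM ester, on a FLIPR Tetra after Tl+ addition. Cells were HEK T-Rex G1 APOL1 clone DC3.25, 26,000 per well, induced with tetracycline at plating in Opti-MEM assay medium.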

Row | Compound | IC50
1 | CC(C)(C)OC(=O)NC1(C(=O)NC[C@H]2C[C@H](c3c(-c4ccc(F)cc4)[nH]c4c(F)cc(F)cc43)C2)CCC1 [Compound 286] | > 1000 nM
2 | O=C1CC(C(=O)NC[C@H]2C[C@H](c3c(-c4ccc(F)cc4)[nH]c4c(F)cc(F)cc43)C2)C(=O)N1 (stereo partly shown) [Compound 287] | > 1000 nM
3 | O=C(NC[C@H]1C[C@H](c2c(-c3ccc(F)cc3)[nH]c3c(F)cc(F)cc32)C1)c1ccncn1 [Compound 288] | > 1000 nM
4 | C[C@@]1(C(=O)NC[C@H]2C[C@H](c3c(-c4ccc(F)cc4)[nH]c4c(F)cc(F)cc43)C2)CCCN1 [Compound 289] | > 1000 nM
5 | O=C(NC[C@H]1C[C@H](c2c(-c3ccc(F)cc3)[nH]c3c(F)cc(F)cc32)C1)c1n[nH]c(=O)[nH]1 [Compound 290] | > 1000 nM
6 | O=C1CC(C(=O)NC[C@H]2C[C@@H](c3c(-c4ccc(F)cc4)[nH]c4c(F)cc(F)cc43)C2)CC(=O)N1 [Compound 291] | > 1000 nM
7 | O=C(NC[C@H]1C[C@H](c2c(-c3ccc(F)cc3)[nH]c3c(F)cc(F)cc32)C1)c1ccn[nH]1 [Compound 292] | > 1000 nM
8 | O=C(CCN1CCCCC1)NC[C@H]1C[C@@H](c2c(-c3ccc(F)cc3)[nH]c3c(F)cc(F)cc32)C1 [Compound 293] | > 1000 nM
9 | O=C1CC(C(=O)NC[C@H]2C[C@@H](c3c(-c4ccc(F)cc4)[nH]c4c(F)cc(F)cc43)C2)CN1 (stereo partly shown) [Compound 294] | > 1000 nM
10 | C[C@@H](NC(=O)OC(C)(C)C)C(=O)NC[C@H]1C[C@H](c2c(-c3ccc(F)cc3)[nH]c3c(F)cc(F)cc32)C1 [Compound 295] | > 1000 nM
11 | O=C(CCN1CCCC1)NC[C@H]1C[C@@H](c2c(-c3ccc(F)cc3)[nH]c3c(F)cc(F)cc32)C1 [Compound 296] | > 1000 nM
12 | O=C(NC[C@H]1C[C@H](c2c(-c3ccc(F)cc3)[nH]c3c(F)cc(F)cc32)C1)c1cccnn1 [Compound 297] | > 1000 nM
13 | O=C(NC[C@H]1C[C@H](c2c(-c3ccc(F)cc3)[nH]c3c(F)cc(F)cc32)C1)c1cn[nH]c1 [Compound 298] | > 1000 nM
14 | CC(C(=O)NC[C@H]1C[C@@H](c2c(-c3ccc(F)cc3)[nH]c3c(F)cc(F)cc32)C1)n1ccnc1 (stereo partly shown) [Compound 299] | > 1000 nM
15 | O=C(CC(=O)N1CCOCC1)NC[C@H]1C[C@@H](c2c(-c3ccc(F)cc3)[nH]c3c(F)cc(F)cc32)C1 [Compound 300] | > 1000 nM
16 | CC(C)C(O)C(=O)NC[C@H]1C[C@@H](c2c(-c3ccc(F)cc3)[nH]c3c(F)cc(F)cc32)C1 (stereo partly shown) [Compound 301] | > 1000 nM
17 | O=C(NC[C@H]1C[C@@H](c2c(-c3ccc(F)cc3)[nH]c3c(F)cc(F)cc32)C1)c1nc[nH]n1 [Compound 302] | > 1000 nM
18 | O=C1NCCC1C(=O)NC[C@H]1C[C@@H](c2c(-c3ccc(F)cc3)[nH]c3c(F)cc(F)cc32)C1 (stereo partly shown) [Compound 303] | > 1000 nM
19 | O=C(NC[C@H]1C[C@H](c2c(-c3ccc(F)cc3)[nH]c3c(F)cc(F)cc32)C1)c1ccc(=O)[nH]c1 [Compound 304] | > 1000 nM

Row | Compound | IC50
20 | CN(CC(=O)NC[C@H]1C[C@@H](c2c(-c3ccc(F)cc3)[nH]c3c(F)cc(F)cc32)C1)S(C)(=O)=O [Compound 305] | > 1000 nM
21 | O=C(Cn1cnnc1)NC[C@H]1C[C@@H](c2c(-c3ccc(F)cc3)[nH]c3c(F)cc(F)cc32)C1 [Compound 307] | > 1000 nM
22 | CS(=O)(=O)CCCC(=O)NC[C@H]1C[C@@H](c2c(-c3ccc(F)cc3)[nH]c3c(F)cc(F)cc32)C1 [Compound 308] | > 1000 nM
23 | O=C(NC[C@H]1C[C@@H](c2c(-c3ccc(F)cc3)[nH]c3c(F)cc(F)cc32)C1)c1cnn[nH]1 [Compound 309] | > 1000 nM
24 | CC(C)(C)OC(=O)NC1(C(=O)NC[C@H]2C[C@H](c3c(-c4ccc(F)cc4)[nH]c4c(F)cc(F)cc43)C2)COC1 [Compound 311] | > 1000 nM
25 | O=C(NC[C@H]1C[C@H](c2c(-c3ccc(F)cc3)[nH]c3c(F)cc(F)cc32)C1)c1ccn[nH]c1=O [Compound 312] | > 1000 nM
26 | O=C(CC1CC(F)(F)C1)NC[C@H]1C[C@@H](c2c(-c3ccc(F)cc3)[nH]c3c(F)cc(F)cc32)C1 [Compound 313] | > 1000 nM
27 | O=C(NC[C@H]1C[C@H](c2c(-c3ccc(F)cc3)[nH]c3c(F)cc(F)cc32)C1)c1ccc[nH]1 [Compound 314] | > 1000 nM
28 | CN1CCCC(CC(=O)NC[C@H]2C[C@@H](c3c(-c4ccc(F)cc4)[nH]c4c(F)cc(F)cc43)C2)C1 (stereo partly shown) [Compound 315] | > 1000 nM
29 | O=C(CC1(O)CCCCC1)NC[C@H]1C[C@@H](c2c(-c3ccc(F)cc3)[nH]c3c(F)cc(F)cc32)C1 [Compound 316] | > 1000 nM
30 | O=C(NC[C@H]1C[C@@H](c2c(-c3ccc(F)cc3)[nH]c3c(F)cc(F)cc32)C1)c1cn[nH]c1 [Compound 317] | > 1000 nM
31 | O=C(CC1COC1)NC[C@H]1C[C@@H](c2c(-c3ccc(F)cc3)[nH]c3c(F)cc(F)cc32)C1 [Compound 319] | > 1000 nM
32 | CN(C)CC(=O)NC[C@H]1C[C@@H](c2c(-c3ccc(F)cc3)[nH]c3c(F)cc(F)cc32)C1 [Compound 320] | > 1000 nM
33 | Cc1nccn1CC(=O)NC[C@H]1C[C@@H](c2c(-c3ccc(F)cc3)[nH]c3c(F)cc(F)cc32)C1 [Compound 321] | > 1000 nM
34 | Cn1nccc1CC(=O)NC[C@H]1C[C@@H](c2c(-c3ccc(F)cc3)[nH]c3c(F)cc(F)cc32)C1 [Compound 322] | > 1000 nM
35 | O=C(CC1CCCOC1)NC[C@H]1C[C@@H](c2c(-c3ccc(F)cc3)[nH]c3c(F)cc(F)cc32)C1 (stereo partly shown) [Compound 323] | > 1000 nM
36 | COC1(CC(=O)NC[C@H]2C[C@@H](c3c(-c4ccc(F)cc4)[nH]c4c(F)cc(F)cc43)C2)CCC1 [Compound 324] | > 1000 nM
37 | O=C(CC1CCOCC1)NC[C@H]1C[C@@H](c2c(-c3ccc(F)cc3)[nH]c3c(F)cc(F)cc32)C1 [Compound 325] | > 1000 nM
38 | O=C(CCN1CCCC1=O)NC[C@H]1C[C@@H](c2c(-c3ccc(F)cc3)[nH]c3c(F)cc(F)cc32)C1 [Compound 326] | > 1000 nM

Row | Compound | IC50
39 | O=C(CN1CCCC1)NC[C@H]1C[C@@H](c2c(-c3ccc(F)cc3)[nH]c3c(F)cc(F)cc32)C1 [Compound 327] | > 1000 nM
40 | O=C1CCC(C(=O)NC[C@H]2C[C@@H](c3c(-c4ccc(F)cc4)[nH]c4c(F)cc(F)cc43)C2)CN1 (stereo partly shown) [Compound 328] | > 1000 nM
41 | Nc1nonc1C(=O)NC[C@H]1C[C@H](c2c(-c3ccc(F)cc3)[nH]c3c(F)cc(F)cc32)C1 [Compound 329] | > 1000 nM
42 | O=C(NC[C@H]1C[C@H](c2c(-c3ccc(F)cc3)[nH]c3c(F)cc(F)cc32)C1)c1ccc[nH]c1=O [Compound 330] | > 1000 nM
43 | CC[C@@H](NC(=O)OC(C)(C)C)C(=O)NC[C@H]1C[C@H](c2c(-c3ccc(F)cc3)[nH]c3c(F)cc(F)cc32)C1 [Compound 331] | > 1000 nM
44 | O=C1NCC[C@H]1NS(=O)(=O)NC[C@H]1C[C@H](c2c(-c3ccc(F)cc3)[nH]c3c(F)cc(F)cc32)C1 [Compound 332, (3R)-3-[[3-[5,7-difluoro-2-(4-fluorophenyl)-1H-indol-3-yl]cyclobutyl]methylsulfamoylamino]pyrrolidin-2-one] | > 1000 nM
45 | O=S(=O)(NCCN1CCC(O)C1)NC[C@H]1C[C@H](c2c(-c3ccc(F)cc3)[nH]c3c(F)cc(F)cc32)C1 (stereo partly shown) [Compound 333] | > 1000 nM
46 | Cc1[nH]cnc1CCNS(=O)(=O)NC[C@H]1C[C@H](c2c(-c3ccc(F)cc3)[nH]c3c(F)cc(F)cc32)C1 [Compound 334] | > 1000 nM
47 | O=C1CCCN1CCCNS(=O)(=O)NC[C@H]1C[C@H](c2c(-c3ccc(F)cc3)[nH]c3c(F)cc(F)cc32)C1 [Compound 335] | > 1000 nM
48 | CN1CC(NS(=O)(=O)NC[C@H]2C[C@H](c3c(-c4ccc(F)cc4)[nH]c4c(F)cc(F)cc43)C2)CC1=O (stereo partly shown) [Compound 336] | > 1000 nM
49 | CNC(=O)c1noc(CNS(=O)(=O)NC[C@H]2C[C@H](c3c(-c4ccc(F)cc4)[nH]c4c(F)cc(F)cc43)C2)n1 [Compound 337] | 250 to 1000 nM
50 | C[C@@H](CO)NS(=O)(=O)NC[C@H]1C[C@H](c2c(-c3ccc(F)cc3)[nH]c3c(F)cc(F)cc32)C1 [Compound 338] | 250 to 1000 nM
51 | O=S(=O)(NCCO)NC[C@H]1C[C@H](c2c(-c3ccc(F)cc3)[nH]c3c(F)cc(F)cc32)C1 [Compound 339] | < 250 nM
52 | O=C1CCC(CNS(=O)(=O)NC[C@H]2C[C@H](c3c(-c4ccc(F)cc4)[nH]c4c(F)cc(F)cc43)C2)N1 (stereo partly shown) [Compound 340] | > 1000 nM
53 | NC(=O)CNS(=O)(=O)NC[C@H]1C[C@H](c2c(-c3ccc(F)cc3)[nH]c3c(F)cc(F)cc32)C1 [Compound 341] | 250 to 1000 nM
54 | O=S(=O)(NC[C@H]1C[C@H](c2c(-c3ccc(F)cc3)[nH]c3c(F)cc(F)cc32)C1)NC1(CO)CC1 [Compound 343] | 250 to 1000 nM
55 | O=S(=O)(NC[C@H]1C[C@H](c2c(-c3ccc(F)cc3)[nH]c3c(F)cc(F)cc32)C1)N[C@H]1C[C@H](O)C1 [Compound 344] | > 1000 nM
56 | O=C1NCCC1CNS(=O)(=O)NC[C@H]1C[C@H](c2c(-c3ccc(F)cc3)[nH]c3c(F)cc(F)cc32)C1 (stereo partly shown) [Compound 345] | > 1000 nM
57 | O=S(=O)(NC[C@H]1C[C@H](c2c(-c3ccc(F)cc3)[nH]c3c(F)cc(F)cc32)C1)NC(CO)CF (stereo partly shown) [Compound 346] | 250 to 1000 nM

Same assay, conditions: Thallium Assay (IC50), HEK 293 T-Rex inducible stable clone expressing G1 APOL1

Row | Compound | IC50
58 | CC(C)(C)OC(=O)N1CC[C@@H]1C(=O)NC[C@H]1C[C@H](c2c(-c3ccc(F)cc3)[nH]c3c(F)cc(F)cc32)C1 [Compound 310] | > 1000 nM
